Marks after values point to notes of the source that are not given here.
Key:
TNF-α = test: Determination of TNF-alpha concentration in colonic tissue samples by ELISA (Example 2); format: in vivo, mouse (male C57BL/6); conditions: 1 mg/kg p.o. daily for 10 days
Method: (§1) An additional sample of colon was obtained from each animal and homogenised in PBS (100 mg tissue/ml PBS) containing 1% bovine serum albumin (BSA) and a protease inhibitor cocktail (1 ml/20 g tissue). The homogenate was then be centrifuged at 1400 rpm for 10 min and the supernatant stored at −20° C. for subsequent determination of TNF-α concentration by specific enzyme immunoassay (ELISA).
[…]

[1] = test system: Dextran Sodium Sulphate (DSS)-induced colitis; test: 10-Day DSS-induced colitis model in the mouse (Example 2): Disease Activity Index and colon histology score; format: in vivo, mouse (male C57BL/6); parameters: key to DAI score: DAI score from stool, bleeding, weight loss; daily maximum 12; conditions: for DAI score: 1 mg/kg p.o. daily
Text: The aim of the following study was to determine the anti-inflammatory activity of human beta defensin 2 in an acute (10-days) model of inflammatory bowel disease (colitis) induced by oral dextran sodium sulphate (DSS) administration in the mouse.
Animals were divided into 5 experimental groups.
Colitis was induced in mice by supplementing their drinking water with DSS 2% for 7 days.
On Day 1 all mice were weighed and marked according to their experimental groups. The drinking bottle of each cage was filled with the DSS solution, making sure all bottle lids were mounted properly and that none were congested.
On Day 3 any remaining solution in the bottles was emptied and refilled with fresh DSS solution. This procedure was repeated again on Day 5.
On Day 8 any remaining solution was discarded and replaced with autoclaved water.
Animals were sacrificed 2 days later on Day 10.
Daily clinical assessment of DSS-treated animals was carried out, with the calculation of a validated clinical Disease Activity Index (DAI) ranging from 0 to 4 according to the following parameters: stool consistency, presence or absence of rectal bleeding and weight loss:
Bodyweight loss was calculated as the percent difference between the original bodyweight (Day 1) and the actual bodyweight on each experimental day (2-10).
The appearance of diarrhoea is defined as mucus/faecal material adherent to anal fur. Rectal bleeding is defined as diarrhoea containing visible blood/mucus or gross rectal bleeding. The maximum score of the DAI each day is 12.
Their colons were removed and their length and weight measured after exclusion of the caecum.
Two sections (proximal and distal) of colon were taken from each animal and preserved in neutral buffered formalin for subsequent histological analysis (haematoxylin and eosin staining) according to the following scoring system:
Two sections (proximal and distal) of colon were taken from each animal, processed for histological analysis (haematoxylin and eosin staining) and scored by a blind observer according to the histological scoring system described above.
(§2) The statistical significance of the results was evaluated using the statistics program Graphpad Instat 3. The difference between groups for disease activity index and histological score was evaluated by Kruskal-Wallis test for unpaired data plus post-test Dunn to allow for multiple comparisons. A value of p<0.05 was taken as significant.

[2] = test system: Dextran Sodium Sulphate (DSS)-induced colitis; test: 10-Day DSS-induced colitis model in the mouse (Example 3): Disease Activity Index and colon histology score; format: in vivo
Method: Example 3 was carried out essentially as described in Example 2. The differences are indicated below.
Animals were divided into 9 experimental groups. […]
Methylprednisolone was given orally at a dose of 1 mg/kg (group H) and 10 mg/kg (group J) in a dosing volume of 5 ml/kg body weight, once daily for 10 consecutive days.
Two sections (proximal and distal) of colon were taken from each animal, processed for histological analysis (haematoxylin and eosin staining), and scored by a blind observer according to the scoring system described above.
as §2, with “data+post-test of” for “data plus post-test”, “Dunn” for “Dunn to allow”, “significant. In the tables above, significant differences versus the corresponding control (vehicle) group are denoted as: *p<0.05, **p<0.01, ***p<0.001.” for “significant.”

C[C@H]1C[C@@H]2[C@H]([C@@H](O)C[C@@]3(C)[C@H]2CC[C@]3(O)C(=O)COC(=O)CCC(=O)O)[C@@]2(C)C=CC(=O)C=C12 [Methylprednisolone 21-hemisuccinate]
Colon TNF-α concentration (TNF-α): 1833 pg/g tissue | Histology Score Distal Colon ([1]; 1 mg/kg p.o. daily for 10 days): 3.70 | Histology Score Proximal Colon ([1]; 1 mg/kg p.o. daily for 10 days): 2.80* | DAI score ([1]; Day 1): 0.00 | DAI score ([1]; Day 2): 0.10 | DAI score ([1]; Day 3): 0.00 | DAI score ([1]; Day 4): 2.60 | DAI score ([1]; Day 5): 2.50 | DAI score ([1]; Day 6): 2.60 | DAI score ([1]; Day 7): 3.10 | DAI score ([1]; Day 8): 2.50* | DAI score ([1]; Day 9): 3.80* | DAI score ([1]; Day 10): 4.90** | Histology Score Distal Colon ([2]; 1 mg/kg p.o. once daily): 3.00*** | Histology Score Proximal Colon ([2]; 1 mg/kg p.o. once daily): 1.40 | DAI score ([2]; 1 mg/kg p.o. once daily, Day 1): 0.00 | DAI score ([2]; 1 mg/kg p.o. once daily, Day 2): 0.50 | DAI score ([2]; 1 mg/kg p.o. once daily, Day 3): 0.50 | DAI score ([2]; 1 mg/kg p.o. once daily, Day 4): 0.40 | DAI score ([2]; 1 mg/kg p.o. once daily, Day 5): 1.10 | DAI score ([2]; 1 mg/kg p.o. once daily, Day 6): 3.80 | DAI score ([2]; 1 mg/kg p.o. once daily, Day 7): 5.90 | DAI score ([2]; 1 mg/kg p.o. once daily, Day 8): 6.40 | DAI score ([2]; 1 mg/kg p.o. once daily, Day 9): 5.60* | DAI score ([2]; 1 mg/kg p.o. once daily, Day 10): 5.60* | Histology Score Distal Colon ([2]; 10 mg/kg p.o. once daily): 2.70*** | Histology Score Proximal Colon ([2]; 10 mg/kg p.o. once daily): 1.40 | DAI score ([2]; 10 mg/kg p.o. once daily, Day 1): 0.00 | DAI score ([2]; 10 mg/kg p.o. once daily, Day 2): 0.30 | DAI score ([2]; 10 mg/kg p.o. once daily, Day 3): 0.70 | DAI score ([2]; 10 mg/kg p.o. once daily, Day 4): 0.80 | DAI score ([2]; 10 mg/kg p.o. once daily, Day 5): 1.30 | DAI score ([2]; 10 mg/kg p.o. once daily, Day 6): 2.00 | DAI score ([2]; 10 mg/kg p.o. once daily, Day 7): 3.20** | DAI score ([2]; 10 mg/kg p.o. once daily, Day 8): 4.80** | DAI score ([2]; 10 mg/kg p.o. once daily, Day 9): 5.20* | DAI score ([2]; 10 mg/kg p.o. once daily, Day 10): 4.00***
